Here are results for 31 molecules from patent US20250319046A1, “PHENYLALANINE-BASED LAT1 INHIBITORS AND USES THEREOF” (MAXYMUNE THERAPEUTICS, INC., priority 2024, published 2025).

This assay addresses LAT1 (Homo sapiens (Human), UniProt Q01650). Put plainly: LAT1 uptake inhibition assay: [3H]-gabapentin competition uptake in LN229 cells. To be noted: [3H]-gabapentin uptake, 15 min incubation in PBS, read-out: IC50, the concentration of test compound at which the [3H]-GP uptake was inhibited by 50%. The class given is cell-based. As to the method: LAT1 Uptake Inhibition Assay
The ability of compounds to interact with LAT1 was measured using a radiolabeled competition uptake assay with [^3H]-Gabapentin ([^3H]-GP) (Perkin Elmer) in 96-well plates with LN229 cells (ATCC®). Ten (10)×10^3 (10,000) cells/well were plated in white, clear bottom plates and were allowed to grow for three (3) days. On the fourth day, the cells were washed and then incubated with 50,000 counts per minute (cpm) of [^3H]-GP in phosphate buffered saline (PBS) (VWR International) with increasing concentrations of test compounds in at least triplicate for 15 min. At end of the assay time, the incubation solution was removed, and plates were washed three times (3×) with 100 μL of ice-cold PBS buffer. One-hundred fifty (150) […] of scintillation fluid (VWR International) was added to each well, and the radioactivity retained within the cells was measured on a 96-well scintillation counter. Background uptake ([^3H]-GP uptake in the presence of 10 mM non-radiolabeled gabapentin (GP)) (MedKoo) was subtracted and data were normalized to the DMSO control ([^3H]-GP uptake in the absence of any competitor). Data were fitted to the Michaelis-Menten equation using GraphPad Prism (Version 8.2.0).

LAT1, sequence (Q01650 whole entry): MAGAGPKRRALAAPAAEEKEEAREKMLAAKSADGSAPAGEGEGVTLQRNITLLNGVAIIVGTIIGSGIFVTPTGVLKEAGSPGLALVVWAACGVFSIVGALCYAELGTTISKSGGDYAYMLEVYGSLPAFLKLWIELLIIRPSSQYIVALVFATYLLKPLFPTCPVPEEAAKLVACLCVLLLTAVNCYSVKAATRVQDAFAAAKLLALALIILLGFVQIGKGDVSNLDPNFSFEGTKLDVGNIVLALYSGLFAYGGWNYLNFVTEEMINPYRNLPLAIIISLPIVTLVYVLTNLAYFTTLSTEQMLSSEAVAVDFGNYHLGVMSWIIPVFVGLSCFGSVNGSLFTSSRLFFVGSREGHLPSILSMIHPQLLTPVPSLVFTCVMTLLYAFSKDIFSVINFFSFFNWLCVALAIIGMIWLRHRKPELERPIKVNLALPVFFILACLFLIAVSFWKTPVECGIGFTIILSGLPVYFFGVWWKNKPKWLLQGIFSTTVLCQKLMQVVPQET
LAT1, sequence (P08195 whole entry partner): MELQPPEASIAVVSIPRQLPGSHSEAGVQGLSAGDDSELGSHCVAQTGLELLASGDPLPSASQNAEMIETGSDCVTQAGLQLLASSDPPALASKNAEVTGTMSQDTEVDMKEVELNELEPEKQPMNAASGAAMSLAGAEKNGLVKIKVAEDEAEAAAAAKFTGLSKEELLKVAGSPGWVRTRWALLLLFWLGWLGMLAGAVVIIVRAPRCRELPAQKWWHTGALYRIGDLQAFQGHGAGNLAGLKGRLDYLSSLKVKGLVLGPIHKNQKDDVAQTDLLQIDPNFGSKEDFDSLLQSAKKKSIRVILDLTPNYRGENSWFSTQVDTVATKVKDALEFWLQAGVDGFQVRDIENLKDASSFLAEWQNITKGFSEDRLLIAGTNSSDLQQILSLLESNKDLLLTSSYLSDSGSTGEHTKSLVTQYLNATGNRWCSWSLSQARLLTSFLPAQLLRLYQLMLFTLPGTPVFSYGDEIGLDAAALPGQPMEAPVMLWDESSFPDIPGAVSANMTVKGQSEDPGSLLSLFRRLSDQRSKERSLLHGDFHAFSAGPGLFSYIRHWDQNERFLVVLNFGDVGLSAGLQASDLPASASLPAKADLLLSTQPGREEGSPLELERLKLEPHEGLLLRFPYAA

For the molecule `Cc1ccc(S(=O)(=O)N(C)c2ccc(Cl)cc2)cc1C[C@H](N)C(=O)O` [Compound 84, (S)-2-Amino-3-(5-(N-(4-chlorophenyl)-N-methylsulfamoyl)-2-methylphenyl)propanoic Acid], the IC50 was 0.02 to 0.1 µM.
For `CCCCS(=O)(=O)Nc1ccc(C)c(C[C@H](N)C(=O)O)c1` [Compound 58, (S)-2-Amino-3-(5-(butylsulfonamido)-2-methylphenyl)propanoic Acid] the value was 0.1 to 1 µM.
Next, `Cc1ccc(NS(=O)(=O)c2cccc3nonc23)cc1C[C@H](N)C(=O)O` [Compound 25, (S)-2-Amino-3-(5-(benzo[c][1,2,5]oxadiazole-4-sulfonamido)-2-methylphenyl)propanoic Acid]: 1 to 10 µM; `Cc1ccc(S(=O)(=O)NCC(C)C)cc1C[C@H](N)C(=O)O` [Compound 46, (S)-2-Amino-3-(5-(N-isobutylsulfamoyl)-2-methylphenyl)propanoic Acid]: 0.1 to 1 µM; `Cc1ccc(N(C)S(=O)(=O)c2cccc3c(N(C)C)cccc23)cc1C[C@H](N)C(=O)O` [Compound 16, (S)-2-Amino-3-(5-((5-(dimethylamino)-N-methylnaphthalene)-1-sulfonamido)-2-methylphenyl)propanoic Acid]: 0.1 to 1 µM.
As for `N[C@@H](Cc1cc(NS(=O)(=O)c2ccccc2)cc(NS(=O)(=O)c2ccccc2)c1)C(=O)O` [Compound 62, (S)-2-Amino-3-(3,5-bis(phenylsulfonamido)phenyl)propanoic Acid], the IC50 was ≥ 10 µM.
For `Cc1ccc(CNS(=O)(=O)Cc2ccccc2)cc1C[C@H](N)C(=O)O` [Compound 54, (S)-2-Amino-3-(2-methyl-5-(((phenylmethyl)sulfonamido)methyl)phenyl)propanoic Acid] the value was 1 to 10 µM; for `Cc1ccc(S(=O)(=O)NCc2ccc(C)c(C[C@H](N)C(=O)O)c2)cc1` [Compound 66, (S)-2-Amino-3-(2-methyl-5-(((4-methylphenyl)sulfonamido)methyl)phenyl)propanoic Acid], 0.1 to 1 µM; for `Cc1ccc(C[S+]([O-])Cc2ccccc2)cc1C[C@H](N)C(=O)O` (stereo partly drawn) [Compound 60, (2S)-2-Amino-3-(5-((benzylsulfinyl)methyl)-2-methylphenyl)propanoic Acid], 0.1 to 1 µM.
For `Cc1ccc(NS(=O)(=O)C[C@@]23CC[C@H](CC2=O)C3(C)C)cc1C[C@H](N)C(=O)O` [Compound 22, (S)-2-Amino-3-(5-((((1R,4R)-7,7-dimethyl-2-oxobicyclo[2.2.1]heptan-1-yl)methyl)sulfonamido)-2-methylphenyl)propanoic Acid] the value was 1 to 10 µM; for `Cc1ccc(NS(=O)(=O)c2cccc(N)c2)cc1C[C@H](N)C(=O)O` [Compound 28, (S)-2-Amino-3-(5-((3-aminophenyl)sulfonamido)-2-methylphenyl)propanoic Acid], 0.1 to 1 µM; for `Cc1ccc(NS(=O)(=O)c2cccc3ccccc23)cc1C[C@H](N)C(=O)O` [Compound 6, (S)-2-Amino-3-(2-methyl-5-(naphthalene-1-sulfonamido)phenyl)propanoic Acid], 0.1 to 1 µM.
For `Cc1ccc(S(=O)(=O)N2CCC[C@@H]2C(=O)O)cc1C[C@H](N)C(=O)O` [Compound 45, ((3-((S)-2-Amino-2-carboxyethyl)-4-methylphenyl)sulfonyl)-D-proline] the value was ≥ 10 µM.
Take `CN(C)c1cccc2c(S(=O)(=O)Nc3ccc(C[C@H](N)C(=O)O)cc3)cccc12` [Compound 4, (S)-2-amino-3-(4-((5-(dimethylamino)naphthalene)-1-sulfonamido)phenyl)propanoic acid]: the IC50 fell in the range of 1 to 10 µM.
For `Cc1ccc(NS(=O)(=O)c2cccnc2)cc1C[C@H](N)C(=O)O` [Compound 11, (S)-2-Amino-3-(2-methyl-5-(pyridine-3-sulfonamido)phenyl)propanoic Acid] the value was 1 to 10 µM.
On to `Cc1ccc(NS(=O)(=O)C(C)C)cc1C[C@H](N)C(=O)O` [Compound 20, (S)-2-Amino-3-(2-methyl-5-((1-methylethyl)sulfonamido)phenyl)propanoic Acid], for which the IC50 fell in the range of 1 to 10 µM.
With `COc1cc(NS(=O)(=O)c2cccc3c(N(C)C)cccc23)ccc1C[C@H](N)C(=O)O` [Compound 8, (S)-2-Amino-3-(4-((5-(dimethylamino)naphthalene)-1-sulfonamido)-2-methoxyphenyl)propanoic Acid], the IC50 was 1 to 10 µM.
Next, `N[C@@H](Cc1ccccc1S(=O)(=O)Nc1ccc(Cl)cc1)C(=O)O` [Compound 81, (S)-2-Amino-3-(2-(N-(4-chlorophenyl)sulfamoyl)phenyl)propanoic Acid]: 1 to 10 µM; `CS(=O)(=O)Nc1cccc(C[C@H](N)C(=O)O)c1` [Compound 68, (S)-2-Amino-3-(3-(methylsulfonamido)phenyl)propanoic Acid]: ≥ 10 µM; `Cc1ccc(NS(=O)(=O)C2CC2)cc1C[C@H](N)C(=O)O` [Compound 14, (S)-2-Amino-3-(5-(cyclopropanesulfonamido)-2-methylphenyl)propanoic Acid]: 1 to 10 µM.
For `Cc1ccc(S(=O)(=O)Nc2ccc(S(=O)(=O)Nc3ccc(C)c(C[C@H](N)C(=O)O)c3)cc2)cc1` [Compound 33, (S)-2-Amino-3-(2-methyl-5-((4-((4-methylphenyl)sulfonamido)phenyl)sulfonamido)phenyl)propanoic Acid] the value was 0.1 to 1 µM; for `Cc1ccc(NS(=O)(=O)c2ccc(-c3ccccc3)cc2)cc1C[C@H](N)C(=O)O` [Compound 17, (S)-3-(5-([1,1′-Biphenyl]-4-sulfonamido)-2-methylphenyl)-2-aminopropanoic Acid], 0.1 to 1 µM.
For `N[C@@H](Cc1ccc(S(N)(=O)=O)cc1)C(=O)O` [Compound 74, (S)-2-Amino-3-(4-sulfamoylphenyl)propanoic acid] the value was ≥ 10 µM; for `Cc1cc(S(=O)(=O)Nc2ccc(Cl)cc2)ccc1C[C@H](N)C(=O)O` [Compound 85, (S)-2-Amino-3-(4-(N-(4-chlorophenyl)sulfamoyl)-2-methylphenyl)propanoic Acid], 0.1 to 1 µM; for `Cc1ccc(NS(=O)(=O)c2ccc(Cl)c3nonc23)cc1C[C@H](N)C(=O)O` [Compound 24, (S)-2-Amino-3-(5-((7-chlorobenzo[c][1,2,5]oxadiazole)-4-sulfonamido)-2-methylphenyl)propanoic Acid], 1 to 10 µM.
Turning to `COc1ccc(S(=O)(=O)Nc2ccc(C)c(C[C@H](N)C(=O)O)c2)cc1` [Compound 57, (S)-2-Amino-3-(5-((4-methoxyphenyl)sulfonamido)-2-methylphenyl)propanoic Acid], the IC50 lay in the range of 0.1 to 1 µM.
As to `Cc1ccc(CSCc2ccccc2)cc1C[C@H](N)C(=O)O` [Compound 55, (S)-2-Amino-3-(5-((benzylthio)methyl)-2-methylphenyl)propanoic Acid], the IC50 lay within 0.1 to 1 µM.
Next, `Cc1ccc(S(=O)(=O)Nc2cccc(S(=O)(=O)Nc3ccc(C)c(C[C@H](N)C(=O)O)c3)c2)cc1` [Compound 32, (S)-2-Amino-3-(2-methyl-5-((3-((4-methylphenyl)sulfonamido)phenyl)sulfonamido)phenyl)propanoic Acid]: 0.1 to 1 µM; `Cc1ccc(NS(=O)(=O)c2cn(C)c(C)n2)cc1C[C@H](N)C(=O)O` [Compound 18, (S)-2-Amino-3-(5-((1,2-dimethyl-1H-imidazole)-4-sulfonamido)-2-methylphenyl)propanoic Acid]: ≥ 10 µM; `N[C@@H](Cc1cccc(S(=O)(=O)N2CCCCC2)c1)C(=O)O` [Compound 78, (S)-2-Amino-3-(3-(piperidin-1-ylsulfonyl)phenyl)propanoic Acid]: 1 to 10 µM.
Next, `Cc1ccc(S(=O)(=O)Cc2ccccc2)cc1C[C@H](N)C(=O)O` [Compound 65, (S)-2-Amino-3-(5-(benzylsulfonyl)-2-methylphenyl)propanoic Acid]: 0.1 to 1 µM.
